Results taken from US9643973B1, “Crystalline form of diclosulam, a process for its preparation and use of the same” (Rotam Agrochem International Company Limited, priority 2016, dated 2017).
Read-outs that look alike come from different tables or passages of the source.

Key:
[1] = format: physicochemical; conditions: for Concentration measured by HPLC after treatment: pH 7 buffer, 20° C.
Method: A stock pH 7 buffer solution was prepared by adding aqueous sodium hydroxide solution (0.1 M, 145 mL) to aqueous potassium dihydrogen phosphate solution (0.1 M, 250 mL), and then adding sufficient distilled water to adjust the final volume to 500 mL. At least 1 time and up to about 5 times the amount of diclosulam needed for saturation was added to a mixing vessel containing stock buffer solution at the test temperature (e.g., 20° C.). The mixture was magnetically stirred in the dark while being maintained at the test temperature and the samples were intermittently and periodically removed for analysis. The samples were centrifuged using a high speed, temperature-controlled centrifuge at the test temperature for about 20 minutes at ≧12000 G to remove suspended particles. An aliquot of each supernatant was taken for analysis. The concentration of diclosulam in the supernatant was determined by a high pressure liquid chromatography (HPLC) with a reversed phase chromatography column and UV detection. The method should include development of best-fit calibration curves based on at least three standards using linear regression analysis Samples were successively withdrawn from the mixing vessel and analyzed until three successive samples show little or no variation in concentration. The test is preferably replicated to ensure accuracy.

[2] = Viscosity (stated in words, no method given); format: physicochemical
[3] = OD formulation, original concentration 40%
[4] = SG formulation, original concentration 25%
[5] = WG formulation, original concentration 25%

Compound	Concentration measured by HPLC after treatment [1, 3] [%]	Concentration measured by HPLC after treatment [1, 4] [%]	Concentration measured by HPLC after treatment [1, 5] [%]	Viscosity (in words) ([2]; listed as diclosulam in amorphous state)	Solubility (in words) [1]	Viscosity (in words) ([2]; listed as crystalline modification I of diclosulam)
CCOc1nc(F)cc2nc(S(=O)(=O)Nc3c(Cl)cccc3Cl)nn12 [Amorphous diclosulam, 2′,6′-dichloro-5-ethoxy-7-fluoro[1,2,4]triazolo[1,5-c]pyrimidine-2-sulfonanilide, reference compound]	14	15	12	highly viscous		
CCOc1nc(F)cc2nc(S(=O)(=O)Nc3c(Cl)cccc3Cl)nn12 [Diclosulam, crystalline modification I, 2′,6′-dichloro-5-ethoxy-7-fluoro[1,2,4]triazolo[1,5-c]pyrimidine-2-sulfonanilide]	35	24.9	23		significant increase	significant decrease
